From publication PMC12615753, “Glutathione as a taste modulator: molecular mechanisms of interaction with umami and sweet taste receptors” (Food Chemistry: Molecular Sciences, 2025) come the findings set out here.

For one assay, the target named is T1, hTAS1R2/rTAS1R3 (UniProt Q8TE23+Q923K1).
T1 construct: The cDNA coding region of rTAS1R3 was synthesized with optimized-codon usage for human expression; expressed in transfected cells
T1 sequence (Q8TE23 20-839): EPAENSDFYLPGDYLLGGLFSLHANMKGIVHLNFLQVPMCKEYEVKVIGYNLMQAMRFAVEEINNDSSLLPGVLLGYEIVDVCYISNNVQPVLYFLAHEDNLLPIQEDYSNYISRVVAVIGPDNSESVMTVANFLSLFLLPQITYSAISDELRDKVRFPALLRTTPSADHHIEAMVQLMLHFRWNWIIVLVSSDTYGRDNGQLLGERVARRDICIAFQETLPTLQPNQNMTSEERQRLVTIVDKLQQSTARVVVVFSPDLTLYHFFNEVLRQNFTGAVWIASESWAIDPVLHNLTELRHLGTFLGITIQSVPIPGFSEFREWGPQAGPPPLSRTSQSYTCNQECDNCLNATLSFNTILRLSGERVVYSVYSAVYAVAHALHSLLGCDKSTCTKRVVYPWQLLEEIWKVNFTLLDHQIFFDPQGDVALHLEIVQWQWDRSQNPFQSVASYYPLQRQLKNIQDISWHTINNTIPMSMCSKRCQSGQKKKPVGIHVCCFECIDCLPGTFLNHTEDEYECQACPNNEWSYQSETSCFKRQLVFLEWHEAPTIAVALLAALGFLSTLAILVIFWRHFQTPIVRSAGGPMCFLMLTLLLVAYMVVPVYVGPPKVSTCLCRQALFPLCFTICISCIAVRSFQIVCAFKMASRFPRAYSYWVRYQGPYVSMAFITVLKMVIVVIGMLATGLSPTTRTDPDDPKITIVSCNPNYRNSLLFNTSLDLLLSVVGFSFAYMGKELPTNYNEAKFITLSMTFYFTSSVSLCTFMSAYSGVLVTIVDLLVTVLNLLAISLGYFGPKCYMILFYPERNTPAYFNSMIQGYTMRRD
T1 sequence (Q923K1 21-858): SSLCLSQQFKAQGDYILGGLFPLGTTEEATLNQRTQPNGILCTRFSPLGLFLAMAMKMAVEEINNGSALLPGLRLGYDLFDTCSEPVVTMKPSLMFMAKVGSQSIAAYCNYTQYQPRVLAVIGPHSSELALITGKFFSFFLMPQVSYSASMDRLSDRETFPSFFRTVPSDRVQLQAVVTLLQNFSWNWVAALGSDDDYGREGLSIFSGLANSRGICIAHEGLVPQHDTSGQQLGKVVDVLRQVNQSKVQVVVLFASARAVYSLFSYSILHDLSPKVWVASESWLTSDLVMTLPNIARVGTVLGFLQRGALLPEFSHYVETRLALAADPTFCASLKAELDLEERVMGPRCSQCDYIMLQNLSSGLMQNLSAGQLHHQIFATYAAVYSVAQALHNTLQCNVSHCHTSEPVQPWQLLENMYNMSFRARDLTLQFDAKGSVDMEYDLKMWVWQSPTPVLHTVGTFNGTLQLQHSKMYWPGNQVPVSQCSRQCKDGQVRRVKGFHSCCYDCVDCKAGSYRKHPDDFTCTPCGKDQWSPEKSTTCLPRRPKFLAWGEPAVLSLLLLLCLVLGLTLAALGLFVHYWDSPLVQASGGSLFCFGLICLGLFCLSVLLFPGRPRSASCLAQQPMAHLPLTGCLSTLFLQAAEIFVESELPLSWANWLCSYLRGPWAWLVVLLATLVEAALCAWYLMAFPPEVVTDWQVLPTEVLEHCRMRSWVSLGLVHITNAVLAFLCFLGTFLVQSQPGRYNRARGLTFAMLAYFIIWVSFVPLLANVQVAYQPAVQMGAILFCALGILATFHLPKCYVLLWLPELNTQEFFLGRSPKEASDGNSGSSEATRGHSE
The assay is described as follows: Calcium assay in transfected HEK293T/17 cells, sweet taste receptor. The format is cell-based, human, rat.

The next assay has as its target T2, hTAS1R2/hTAS1R3(r1–575) (UniProt Q8TE23+Q923K1, A645S/A698V/A702T/A793V/A807V/C582S/C678S/E725V/E827G/F612A/F622V/F805L/I617V/I740A/I779T/I803L/K818R/L735F/L823M/L825Q/M644L/M706V/M729T/N675D/Q717H/Q757R/Q795R/Q831P/R632Q/R634S/R762C/S576L/S610P/S635P/S637R/S679G/T588V/T694M/T813A/V584A/V718M/V723A/V738A/V744T/V821L/W599R/W676R/W824R/Y598H/Y680C/Y794L).
T2 construct: hTAS1R3(r1–575) consists of the N-terminal extracellular domain of rTAS1R3 and the TMD of hTAS1R3; expressed in transfected cells
The assay is described as follows: Calcium assay, chimeric TAS1R3 co-expressed with hTAS1R2. In kind it is cell-based, human, rat. An excerpt:
Chimeric Gα proteins, such as Gα16Gust44, Gα16Gi3 or Gα15i2, are widely used in the functional expression of TAS1R receptors ([Backes et al., 2015]; [Suess et al., 2015]; [Toda et al., 2021], [Toda et al., 2013], [Toda et al., 2018]; [Zhang et al., 2008]). Chimeric Gα15i2 (([Toda et al., 2013]), Supplementary data) was generated by replacing the last five residues of the C-terminal tail of rat Gα15i2 (EINLL) (UniProt number G3V6N8; https://www.uniprot.org/uniprot/) with the counterpart sequence from human GNAI2 (DCGLF) (UniProt number P04899-1) and cloning into the pcDNA3.1/Hygro vector (Invitrogen, Thermo Fisher Scientific, Illkirch, France) between the HindIII and NotI restriction sites, resulting in the plasmid pcDNA3.1-Gα15i2. Chimeric Gα16Gust44 construct have already been reported ([Raliou et al., 2011]). Briefly, Gα16Gust44 was generated by replacing the C-terminal of Gα16 with the C-terminal 44 residues of gustducin. As previously described, hTAS1R1 was amplified from human fungiform papillae cDNA and cloned and inserted into pcDNA3 (Invitrogen), generating pcDNA3-TAS1R1-WT (wild-type) ([Raliou et al., 2011]). […]

T2 sequence (Q923K1 other isoform, or with tags, fused parts or gaps with the stated changes, one chain of several): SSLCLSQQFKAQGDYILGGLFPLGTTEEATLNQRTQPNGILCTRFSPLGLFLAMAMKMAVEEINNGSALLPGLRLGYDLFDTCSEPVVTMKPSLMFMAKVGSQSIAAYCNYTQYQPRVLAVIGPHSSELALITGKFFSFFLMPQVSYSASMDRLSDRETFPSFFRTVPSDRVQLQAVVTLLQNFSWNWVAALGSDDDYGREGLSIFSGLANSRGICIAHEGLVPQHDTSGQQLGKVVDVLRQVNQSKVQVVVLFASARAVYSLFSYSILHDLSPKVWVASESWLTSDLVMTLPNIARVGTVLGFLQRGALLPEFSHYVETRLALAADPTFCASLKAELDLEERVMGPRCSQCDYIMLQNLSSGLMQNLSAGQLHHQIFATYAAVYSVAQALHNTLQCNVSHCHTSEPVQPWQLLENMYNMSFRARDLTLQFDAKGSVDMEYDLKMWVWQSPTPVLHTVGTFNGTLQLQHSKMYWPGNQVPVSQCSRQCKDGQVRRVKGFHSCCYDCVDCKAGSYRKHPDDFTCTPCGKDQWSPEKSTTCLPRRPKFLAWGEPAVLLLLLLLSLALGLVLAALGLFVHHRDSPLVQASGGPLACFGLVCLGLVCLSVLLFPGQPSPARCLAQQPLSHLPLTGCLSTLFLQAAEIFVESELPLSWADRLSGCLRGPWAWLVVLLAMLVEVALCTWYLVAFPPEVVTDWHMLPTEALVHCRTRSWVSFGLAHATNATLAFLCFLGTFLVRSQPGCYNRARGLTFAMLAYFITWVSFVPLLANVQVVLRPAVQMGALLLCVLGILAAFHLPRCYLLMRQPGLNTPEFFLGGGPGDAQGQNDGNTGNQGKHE
Description for hTAS1R2/rTAS1R3: HEK293T/17 cells (ATCC CRL-11268) were seeded into clear bottom black 96-well plates coated with poly-D-lysine at a density of 32500 cells/well in 100 μL of DMEM containing 4.5 g/L glucose and supplemented with penicillin/streptomycin, 2 mM GlutaMAX and 10 % dialyzed fetal bovine serum. The plates were incubated for 24 h at 37 °C and 7.3 % CO2 in a humidified atmosphere. After incubation, using Fugene® 4 K (0.46 μL/well, Promega, Illkirch, France), the cells were transiently transfected with pcDNA3-hTAS1R1-WT (60 ng/well) or TAS1R1 mutants, pcDNA4-rTAS1R3 (60 ng/well), pcDNA3-Gα15i2 (10 ng/well), and pGP-CMV-GCaMP6s (Addgene #40753; 10 ng/well) as a genetically encoded calcium indicator. Twenty-four hours after transfection, the HEK293T/17 cells were rinsed with 100 μL of C1 buffer (130 mM NaCl, 5 mM KCl, 10 mM HEPES, 2 mM CaCl2, and 5 mM sodium pyruvate, pH 7.4). For each molecule tested, a semi-logarithmic concentration range was created consisting of seven increasing concentrations and a negative control (zero dose) made of buffer C1. Binary mixtures with different molecules were also made to study potential synergy. In this case, the concentration range was tested in C1 buffer containing the other molecules to be tested. The concentration ranges varied depending on the molecule, its solubility, and its effectiveness in activating the receptor. All the solutions were made on the day of the test to prevent any oxidation of the compounds. If needed, the pH of each solution was adjusted by to pH 7.4 by adding NaOH. After 20 s of basal fluorescence calcium measurement, the cells were stimulated via automatic injection of a range of compounds in eight wells, and the signal emission was recorded for an additional 70 s, via a FlexStation 3® fluorometric microplate reader (Molecular Devices, San Jose, CA, USA). As a control, molecules were also tested on mock-transfected cells with the empty vector. The emitted fluorescence was measured at a wavelength of 510 nm after excitation at 488 nm. Each measurement was performed in duplicate on the same plate, and the experiments were carried out at least four times. Kinetic data were acquired via SoftMax Pro 5.4.6 software (Molecular Devices). For each well, the decrease in the raw fluorescence as the relative fluorescence changed was calculated as ΔF/F0. Replicates were averaged for the wells subjected to the same stimuli, the background signal was subtracted, and the fluorescence changes in mock-transfected cells were subtracted. The half-maximal effective concentration (EC50) and maximal signal amplitude (max ∆F/F0) were calculated via non-linear regression of the sigmoidal function four-parameter logistic equation [f(x) = min + (max − min)/(1 + (x/EC50)^nH)] via SigmaPlot 15.0 software (Grafiti LLC, Palo Alto, CA, USA). […]

Broadly, the EC50 is the concentration giving half of the maximal effect. With `N[C@@H](CCC(=O)N[C@@H](CS)C(=O)NCC(=O)O)C(=O)O` [GSH, γ-L-glutamyl-L-cysteinyl-glycine], the EC50 on hTAS1R2/rTAS1R3 (agonist alone, Fig. 2) is 4060 ± 2510 µM. The figures for the “fold decrease in the EC50 value of sucralose” value on hTAS1R2/rTAS1R3 (in the presence of 10 mM GSH) and at hTAS1R2/hTAS1R3(r1–575) (in the presence of 10 mM GSH) were 3 fold and 5.2 fold, respectively.

For `OC[C@H]1O[C@H](O[C@]2(CCl)O[C@H](CCl)[C@@H](O)[C@@H]2O)[C@H](O)[C@@H](O)[C@H]1Cl` [sucralose, reference compound], the EC50 on hTAS1R2/rTAS1R3 (WT, sucralose alone, Fig. 4A) was determined as 325 ± 140 µM; on hTAS1R2/rTAS1R3 (agonist alone, Fig. 2) it was 251 ± 128 µM; at hTAS1R2/hTAS1R3(r1–575) (sucralose alone, Fig. 3B) it was 485 ± 138 µM.
